Reference: patent US11629171B2, “Beta-hairpin peptidomimetics” (POLYPHOR AG, priority 2017, dated 2023)
Converted amounts (≈) assume the structure as drawn. Where a SMILES comes first, the peptide text is derived from it. Bridges are numbered along the chain shown (N, C = ends). Roman numbers before positions name the chains, in order. [ ]: non-standard residue; d: D form. Thr(ol) = C[C@@H](O)[C@H](N)CO; Tle = CC(C)(C)[C@H](N)C(=O)O; NMeV = CN[C@H](C(=O)O)C(C)C; Hiv = CC(C)[C@H](O)C(=O)O; dDab = NCC[C@@H](N)C(=O)O; hSer = N[C@@H](CCO)C(=O)O; Orn = NCCC[C@H](N)C(=O)O; Dab = NCC[C@H](N)C(=O)O; Dap = NC[C@H](N)C(=O)O

Legend:
Assay type in all cases: cell-based
[1] = tested on: human red blood cells (hRBC); assay: Hemolysis; conditions: red cells of human, 1 h, 200
Method in brief: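 Percent hemolysis relative to 2% Triton X-100 (100%) and PBS/10% water (0%), from blank-corrected OD540 of diluted supernatants. Peptides tested at 200 μg/mL against 20% (v/v) washed human erythrocytes, 1 h, 37° C, shaking at 300 rpm.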

[2] = tested on: Klebsiella pneumoniae SSI #3010; conditions: SSI #3010
Method in brief: (§1)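 Peptides are tested in serial two-fold dilutions against about 10^6 CFU/mL in MH-II broth containing 0.002% P-80 (v/v, final). Plates incubate 18-20 h at 35° C, and the MIC is the lowest peptide level (μg/mL) showing no visible growth.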

[3] = tested on: Enterobacter cloacae 848840; conditions: 848840
Method in brief: as §1

Escherichia coli 926415 = conditions: 926415
Method in brief: as §1

[4] = tested on: Klebsiella pneumoniae 968733; conditions: 968733
Method in brief: as §1

[5] = tested on: Pseudomonas aeruginosa ATCC 27853; conditions: ATCC 27853
Method in brief: as §1

[6] = tested on: Acinetobacter baumannii 872842; conditions: 872842
Method in brief: as §1

[7] = tested on: Acinetobacter baumannii DSM 30008; conditions: DSM 30008
Method in brief: as §1

[8] = tested on: Escherichia coli ATCC 25922; conditions: ATCC 25922
Method in brief: as §1

Structure (SMILES)	Klebsiella pneumoniae SSI #3010 MIC [2] [µg/mL]	MIC [3] [µg/mL]	MIC (Escherichia coli 926415) [µg/mL]	MIC [4] [µg/mL]	Pseudomonas aeruginosa ATCC 27853 MIC [5] [µg/mL]	MIC [6] [µg/mL]	Acinetobacter baumannii DSM 30008 MIC [7] [µg/mL]	Escherichia coli ATCC 25922 MIC [8] [µg/mL]	MIC [2] [µg/mL]	MIC [5] [µg/mL]	MIC [7] [µg/mL]	MIC [8] [µg/mL]	Hemolysis at 200 μg/mL [1] [%]
CC[C@H](C)[C@H](NC(C)=O)C(=O)N[C@H]1CCCNC(=O)[C@@H]([C@H](C)O)NC(=O)[C@H](C(C)(C)C)NC(=O)[C@H](CO)NC(=O)[C@H](Cc2c[nH]c3ccccc23)NC(=O)[C@H](CCO)NC(=O)[C@@H](CCN)NC(=O)[C@H](CCC(=O)N[C@@H](CCN)C(=O)N[C@H](C(=O)N[C@@H](CN)C(=O)N[C@H]2CCNC(=O)[C@H]([C@@H](C)O)NC(=O)[C@H](CCN)NC(=O)[C@H](CCN)NC(=O)[C@H](CC(C)C)NC(=O)[C@@H](CC(C)C)NC(=O)[C@H](CCN)NC2=O)[C@@H](C)O)NC(=O)[C@H](CN)NC(=O)[C@H](Cc2ccc(O)cc2)NC1=O [Ex. 32] (I: Ac-I[Orn]Y[Dap]E[dDab][hSer]WS[Tle][dT] / II: [Dab]T[Dap][Dab][Dab][dL]L[Dab][Dab]T; lactam I:2-I:C, II:4-II:C; amide I:5-II:N)		0.125 (≈ 0.0536 µM)	0.0625 (≈ 0.0268 µM)	0.25 (≈ 0.107 µM)		0.0625 (≈ 0.0268 µM)			0.125 (≈ 0.0536 µM)	0.25 (≈ 0.107 µM)	0.0625 (≈ 0.0268 µM)	0.0625 (≈ 0.0268 µM)	<1
CC(=O)N[C@H](C(=O)N[C@H]1CSSC[C@@H](C(=O)N[C@@H](CO)C(N)=O)NC(=O)[C@H](C(C)C)NC(=O)[C@H](CO)NC(=O)[C@H](Cc2c[nH]c3ccccc23)NC(=O)[C@H](CCC(=O)N[C@@H](CCN)C(=O)N[C@H](C(=O)N[C@@H](CN)C(=O)N[C@H]2CCNC(=O)[C@H]([C@@H](C)O)NC(=O)[C@H](CCN)NC(=O)[C@H](CCN)NC(=O)[C@H](CC(C)C)NC(=O)[C@@H](CC(C)C)NC(=O)[C@H](CCN)NC2=O)[C@@H](C)O)NC(=O)[C@@H](CCN)NC(=O)CNC(=O)[C@H](CCN)NC(=O)[C@H](Cc2ccc(O)cc2)NC1=O)C(C)C [Ex. 360] (I: Ac-VCY[Dab]G[dDab]EWSVCS-NH2 / II: [Dab]T[Dap][Dab][Dab][dL]L[Dab][Dab]T; disulfide I:2-I:11; amide I:7-II:N; lactam II:4-II:C)	0.0625	0.125 (≈ 0.0528 µM)	0.25 (≈ 0.106 µM)	0.5 (≈ 0.211 µM)	0.125	0.125 (≈ 0.0528 µM)	0.0625	0.0625					2
CC(C)C[C@@H]1NC(=O)[C@@H](CC(C)C)NC(=O)[C@H](CCN)NC(=O)[C@@H](NC(=O)[C@H](CN)NC(=O)[C@@H](NC(=O)[C@H](CCN)NC(=O)CC[C@@H]2NC(=O)[C@H](CCCN)NC(=O)[C@H](CCN)NC(=O)[C@H](Cc3ccc(O)cc3)NC(=O)[C@@H](NC(=O)[C@@H](O)C(C)C)CSSC[C@@H](C(=O)N[C@H](C(N)=O)[C@@H](C)O)NC(=O)[C@H](C(C)(C)C)NC(=O)[C@H](CO)NC(=O)[C@H](Cc3c[nH]c4ccccc34)NC(=O)[C@H]([C@@H](C)O)NC2=O)[C@@H](C)O)CCNC(=O)[C@H]([C@@H](C)O)NC(=O)[C@H](CCN)NC(=O)[C@H](CCN)NC1=O [Ex. 160] (I: H-[Hiv]CY[Dab][Orn]ETWS[Tle]CT-NH2 / II: [Dab]T[Dap][Dab][Dab][dL]L[Dab][Dab]T; disulfide I:2-I:11; amide I:6-II:N; lactam II:4-II:C)		2 (≈ 0.829 µM)	0.5 (≈ 0.207 µM)	0.5 (≈ 0.207 µM)		0.5 (≈ 0.207 µM)			0.25 (≈ 0.104 µM)	0.25 (≈ 0.104 µM)	0.125 (≈ 0.0518 µM)	0.125 (≈ 0.0518 µM)	<1
CC(C)C[C@@H]1NC(=O)[C@@H](CC(C)C)NC(=O)[C@H](CCN)NC(=O)[C@@H](NC(=O)[C@H](CN)NC(=O)[C@@H](NC(=O)[C@H](CCN)NC(=O)CC[C@@H]2NC(=O)[C@@H](CCN)NC(=O)[C@H](CCCN)NC(=O)[C@@H](NC(=O)[C@H](Cc3ccc(O)cc3)NC(=O)[C@@H](NC(=O)[C@@H](O)C(C)C)[C@@H](C)O)CSSC[C@@H](C(=O)N[C@H](C(=O)N[C@@H](C)C(=O)N[C@H](CO)[C@@H](C)O)C(C)(C)C)NC(=O)[C@H](Cc3c[nH]c4ccccc34)NC2=O)[C@@H](C)O)CCNC(=O)[C@H]([C@@H](C)O)NC(=O)[C@H](CCN)NC(=O)[C@H](CCN)NC1=O [Ex. 211] (I: H-[Hiv]TYC[Orn][dDab]EWC[Tle]A[Thr(ol)] / II: [Dab]T[Dap][Dab][Dab][dL]L[Dab][Dab]T; disulfide I:4-I:9; amide I:7-II:N; lactam II:4-II:C)		2 (≈ 0.839 µM)	0.25 (≈ 0.105 µM)	0.25 (≈ 0.105 µM)		0.0625 (≈ 0.0262 µM)			0.0625 (≈ 0.0262 µM)	0.125 (≈ 0.0524 µM)	0.03125 (≈ 0.0131 µM)	0.0625 (≈ 0.0262 µM)	<1

The next lines start with results.

Klebsiella pneumoniae SSI #3010 MIC [2] [µg/mL]	MIC [3] [µg/mL]	MIC (Escherichia coli 926415) [µg/mL]	MIC [4] [µg/mL]	Pseudomonas aeruginosa ATCC 27853 MIC [5] [µg/mL]	MIC [6] [µg/mL]	Acinetobacter baumannii DSM 30008 MIC [7] [µg/mL]	Escherichia coli ATCC 25922 MIC [8] [µg/mL]	MIC [2] [µg/mL]	MIC [5] [µg/mL]	MIC [7] [µg/mL]	MIC [8] [µg/mL]	Structure (SMILES)	Hemolysis at 200 μg/mL [1] [%]
0.0625	0.125 (≈ 0.0518 µM)	0.5 (≈ 0.207 µM)	0.25 (≈ 0.104 µM)	0.125	0.0625 (≈ 0.0259 µM)	0.03125	0.0625					CC(=O)N[C@H](C(=O)N[C@H]1CSSC[C@@H](C(=O)N[C@@H](CO)C(N)=O)NC(=O)[C@H](C(C)C)NC(=O)[C@H](CO)NC(=O)[C@H](Cc2c[nH]c3ccccc23)NC(=O)[C@H](CCC(=O)N[C@@H](CCN)C(=O)N[C@H](C(=O)N[C@@H](CN)C(=O)N[C@H]2CCNC(=O)[C@H]([C@@H](C)O)NC(=O)[C@H](CCN)NC(=O)[C@H](CCN)NC(=O)[C@H](CC(C)C)NC(=O)[C@@H](CC(C)C)NC(=O)[C@H](CCN)NC2=O)[C@@H](C)O)NC(=O)[C@@H](CCN)NC(=O)[C@H](CCCN)NC(=O)[C@H](CO)NC(=O)[C@H](Cc2ccc(O)cc2)NC1=O)C(C)C [Ex. 354] (I: Ac-VCYS[Orn][dDab]EWSVCS-NH2 / II: [Dab]T[Dap][Dab][Dab][dL]L[Dab][Dab]T; disulfide I:2-I:11; amide I:7-II:N; lactam II:4-II:C)	1
	0.25 (≈ 0.109 µM)	1 (≈ 0.435 µM)	0.5 (≈ 0.218 µM)		0.125 (≈ 0.0544 µM)			0.125 (≈ 0.0544 µM)	0.125 (≈ 0.0544 µM)	0.125 (≈ 0.0544 µM)	0.125 (≈ 0.0544 µM)	CN[C@H](C(=O)N[C@H]1CSSC[C@@H](C(N)=O)NC(=O)[C@H](C(C)(C)C)NC(=O)[C@H](CO)NC(=O)[C@H](Cc2c[nH]c3ccccc23)NC(=O)[C@H](CCN)NC(=O)[C@@H](CCN)NC(=O)[C@H](CCC(=O)N[C@@H](CCN)C(=O)N[C@H](C(=O)N[C@@H](CN)C(=O)N[C@H]2CCNC(=O)[C@H]([C@@H](C)O)NC(=O)[C@H](CCN)NC(=O)[C@H](CCN)NC(=O)[C@H](CC(C)C)NC(=O)[C@@H](CC(C)C)NC(=O)[C@H](CCN)NC2=O)[C@@H](C)O)NC(=O)[C@H](CN)NC(=O)[C@H](Cc2ccc(O)cc2)NC1=O)C(C)C [Example 9] (I: H-[NMeV]CY[Dap]E[dDab][Dab]WS[Tle]C-NH2 / II: [Dab]T[Dap][Dab][Dab][dL]L[Dab][Dab]T; disulfide I:2-I:11; amide I:5-II:N; lactam II:4-II:C)	<1
	4 (≈ 1.65 µM)	0.25 (≈ 0.103 µM)	0.125 (≈ 0.0515 µM)		0.125 (≈ 0.0515 µM)			0.0625 (≈ 0.0258 µM)	0.125 (≈ 0.0515 µM)	0.0625 (≈ 0.0258 µM)	0.125 (≈ 0.0515 µM)	CC(=O)N[C@@H](CO)C(=O)N[C@H]1CSSC[C@@H](C(=O)N[C@H](C(N)=O)C(C)C)NC(=O)[C@H](C(C)C)NC(=O)[C@H](CO)NC(=O)[C@H](Cc2c[nH]c3ccccc23)NC(=O)[C@H](CCO)NC(=O)[C@@H](CCN)NC(=O)[C@H](CCC(=O)N[C@@H](CCN)C(=O)N[C@H](C(=O)N[C@@H](CCN)C(=O)N[C@H]2CCNC(=O)[C@H]([C@@H](C)O)NC(=O)[C@H](CCN)NC(=O)[C@H](CCN)NC(=O)[C@H](CC(C)C)NC(=O)[C@@H](CC(C)C)NC(=O)[C@H](CCN)NC2=O)[C@@H](C)O)NC(=O)[C@H](CCN)NC(=O)[C@H](Cc2ccc(O)cc2)NC1=O [Ex. 62] (I: Ac-SCY[Dab]E[dDab][hSer]WSVCV-NH2 / II: [Dab]T[Dab][Dab][Dab][dL]L[Dab][Dab]T; disulfide I:2-I:11; amide I:5-II:N; lactam II:4-II:C)	<1
	4 (≈ 1.67 µM)	1 (≈ 0.417 µM)	8 (≈ 3.33 µM)		0.5 (≈ 0.208 µM)			0.25 (≈ 0.104 µM)	0.125 (≈ 0.0521 µM)	0.25 (≈ 0.104 µM)	0.25 (≈ 0.104 µM)	CC(C)C[C@@H]1NC(=O)[C@@H](CC(C)C)NC(=O)[C@H](CCN)NC(=O)[C@@H](NC(=O)[C@H](CCN)NC(=O)[C@@H](NC(=O)[C@H](CCN)NC(=O)CC[C@@H]2NC(=O)[C@H](CCN)NC(=O)[C@H](Cc3ccc(O)cc3)NC(=O)[C@@H](NC(=O)[C@@H](N)C(C)C)CSSC[C@@H](C(=O)N[C@@H](CO)C(N)=O)NC(=O)[C@H](C(C)C)NC(=O)[C@H](CCO)NC(=O)[C@H](Cc3c[nH]c4ccccc34)NC(=O)[C@H](CCO)NC(=O)[C@@H](CCN)NC2=O)[C@@H](C)O)CCNC(=O)[C@H]([C@@H](C)O)NC(=O)[C@H](CCN)NC(=O)[C@H](CCN)NC1=O [Ex. 48] (I: H-VCY[Dab]E[dDab][hSer]W[hSer]VCS-NH2 / II: [Dab]T[Dab][Dab][Dab][dL]L[Dab][Dab]T; disulfide I:2-I:11; amide I:5-II:N; lactam II:4-II:C)	<1
